According to publication PMC12196235, “Enhancing the Pharmacological Properties of Triterpenes Through Acetylation: An Anticancer and Antioxidant Perspective” (Molecules, 2025):
Several values for one entry are separate records, joined by “and”; a condition that tells them apart may be missing. Equal values may be shown once. Read-outs that look alike come from different tables or passages of the source.

Columns and labels:
[1] = system: B16-F10 (murine melanoma); conditions: cited from earlier work
[2] = system: HeLa, KB, MCF-7, A-549, PC-3 and SKOV-3; experiment: MTT assay, summary over the cancer cell lines; assay type: cell-based, human; conditions: for cytotoxic activity class: classification by IC50 (good ≤ 10 μM, moderate 10–30 μM, ref 83)
Experimental: (§1) All the cell lines and mediums were obtained from the American Type Culture Collection (ATCC) supplied by LGC-Standards (Lomianki, Poland). Human cancer cell lines were cultured as follows: HeLa (human cervix carcinoma) and KB (human oral squamous carcinoma) lines were cultured in DMEM (Dulbecco’s Modified Eagle’s Medium); MCF-7 (human breast carcinoma) and A-549 (human lung carcinoma) were cultured in RPMI 1640 medium; PC-3 (human prostate carcinoma) was cultured in F-12K medium; SKOV-3 (human ovarian cystadenocarcinoma) was cultured in McCoy’s modified medium; HDF (human normal dermal fibroblasts) was cultured in Fibroblast Basal Medium. Each medium was supplemented with 10% fetal bovine serum, 1% L- glutamine and 1% penicillin/streptomycin solution. The cell lines were kept in an incubator at 37 °C.
(§2) All the tested cell lines (HeLa, KB, MCF-7, A-549, PC-3, SKOV-3 and HDF) were subjected to MTT assay. In short, this assay is based on the reaction between mitochondria enzymes (dehydrogenases) of tested cell lines and 3-(4,5-dimethylthiazol-2-yl)-2,5-diphenyltetrazolium bromide (MTT). The final product of this reaction gives violet formazan crystals. The number of live cells is proportional to the amount of formazan and is represented by the violet dye reagent. The details of the experiments are given in [19].

RAW 264.7 = conditions: ref 106; cited from earlier work
[3] = system: J774A.1 (macrophage-like cell line); conditions: ref 106; cited from earlier work
[4] = system: SKOV-3 (human ovarian carcinoma); experiment: MTT assay, SKOV-3; assay type: cell-based; conditions: for IC50: Homo sapiens, SK-OV-3, MTT assay, SKOV-3, read-out: IC50 (±SD), SKOV-3; for Selectivity index (SI), SKOV-3: IC50 HDF / IC50 SKOV-3
Experimental: as §1, §2

PC-3 = experiment: Apoptosis assay (Cell Death Detection ELISA Plus), PC-3; assay type: cell-based, human; conditions: PC-3, 4 h incubation, enrichment of mono- and oligonucleosomes vs negative control
Experimental: (§3) The induction of apoptosis by tested compounds was determined with Cell Death Detection ELISA Plus from Roche Diagnostics GmbH (Mannheim, Germany).
(§4) Cell Death Detection ELISA Plus is an enzyme immunoassay for determining cytoplasmic histone-associated DNA fragments (mono- and […]) after induced cell death. Cells (10^4) were pipetted into wells of 96-well plates, and test compounds were added at final concentrations of 0.1, 1.0 and 10.0 µg × mL^−1. Cells incubated in the absence of test compounds served as negative controls. After 4 h of incubation, cells were harvested by centrifugation of the plates for 10 min at 200× g. Supernatants were removed carefully, and cell pellets were resuspended in 200 µL of cell lysis buffer and incubated for 30 min at room temperature. After centrifugation of the plates (10 min at 200× g), 20 µL of cell lysates was transferred in duplicate into wells of provided streptavidin-coated microplates. Then, 80 µL of the immunoreagent containing a mixture of anti-histone-biotin monoclonal antibody and anti-DNA-peroxidase monoclonal antibody was added to each well. The microplates were covered with a provided adhesive foil and incubated for 2 h at room temperature. Thereafter, the solution in the wells was removed by tapping the microplate. The wells were rinsed three times with incubation buffer, and 100 µL of substrate (2,2′-azino-bis [3-ethylbenzothiazoline-6-sulphonic acid], ABTS) was added to each well. After 10–20 min, 100 µL of ABTS stop solution was pipetted to each well, and the absorbance was read at 405 nm (test wavelength) and 490 nm (reference wavelength). The apoptotic index was calculated based on the enrichment of mono- and oligonucleosomes according to the following equation:apoptotic index = [{A405(sample) − A490(sample)}/{A405(negative control) − A490(negative control)}]

[5] = system: A-549 (human lung carcinoma); experiment: MTT assay, A-549; assay type: cell-based; conditions: for IC50: Homo sapiens, A549, MTT assay, A-549, read-out: IC50 (±SD), A-549; for Selectivity index (SI), A-549: IC50 HDF / IC50 A-549
Experimental: as §1, §2

[6] = system: Hep-G2 (human hepatocellular carcinoma); conditions: cited from earlier work
[7] = system: KB (human oral squamous carcinoma); experiment: MTT assay, KB; assay type: cell-based; conditions: for IC50: Homo sapiens, MTT assay, KB; for Selectivity index (SI), KB: IC50 HDF / IC50 KB
Experimental: as §1, §2

SKOV-3 = experiment: Apoptosis assay (Cell Death Detection ELISA Plus), SKOV-3; assay type: cell-based, human; conditions: SKOV-3, 4 h incubation, enrichment of mono- and oligonucleosomes vs negative control
Experimental: as §3, §4

[8] = system: MCF-7 (human breast carcinoma); experiment: MTT assay, MCF-7; assay type: cell-based; conditions: for IC50: Homo sapiens, MCF7, MTT assay, MCF-7, read-out: IC50 (±SD), MCF-7; for Selectivity index (SI), MCF-7: IC50 HDF / IC50 MCF-7
Experimental: as §1, §2

[9] = system: HT-29 (human colorectal adenocarcinoma); conditions: cited from earlier work
[10] = system: PC-3 (human prostate carcinoma); experiment: MTT assay, PC-3; assay type: cell-based; conditions: for IC50: Homo sapiens, MTT assay, PC-3, read-out: IC50 (±SD), PC-3; for Selectivity index (SI), PC-3: IC50 HDF / IC50 PC-3
Experimental: as §1, §2

[11] = system: HeLa (human cervical epithelioid carcinoma); experiment: MTT assay, HeLa; assay type: cell-based; conditions: for IC50: Homo sapiens, MTT assay, HeLa, read-out: IC50 (±SD), HeLa; for Selectivity index (SI), HeLa: IC50 HDF / IC50 HeLa
Experimental: as §1, §2

[12] = system: A-549 (human lung carcinoma); conditions: cited from earlier work
[13] = system: KB-VIN (multidrug resistant human epidermoid carcinoma); conditions: ref 104; cited from earlier work
[14] = system: HDF (human dermal fibroblasts); experiment: MTT assay, normal HDF; assay type: cell-based; conditions: Homo sapiens, Fibroblast, read-out: IC50 (±SD), HDF
Experimental: as §1, §2

CUPRAC antioxidant assay = conditions: calculated from Trolox standard curve
Experimental: (§5) The results are presented as % inhibition of the copper(II) ions and Trolox equivalent calculated from the standard curve (Figure 9) and as % inhibition of the DPPH radical and Trolox equivalent, calculated from the standard curve (Figure 10).
(§6) The CUPRAC reagent (7.5 mM ethanolic 96% neocuproine solution, 10 mM CuCl2 × H2O solution and an ammonium acetate buffer of pH 7.0) and DPPH reagent (2,2-diphenyl-1-picrylhydrazyl 0.2 mM solution) were applied.
(§7) The CUPRAC method measures the reducing power of a sample by quantifying its ability to convert the Cu-neocuproine reagent complex to the Cu(I) form. In contrast, the DPPH assay relies on the ability of an antioxidant to donate a hydrogen atom or an electron to the stable DPPH radical, resulting in its reduction and subsequent color change. The results are presented as % inhibition of the copper(II) ions and Trolox equivalent calculated from the standard curve (Figure 9) and as % inhibition of the DPPH radical and Trolox equivalent, calculated from the standard curve (Figure 10). The spectroscopic detection in CUPRAC and DPPH assays was conducted with Synergy H1 Multi-Mode Microplate Reader (BioTek Instruments, Inc., Winooski, VT, USA). The details of the experiments are given in [102].

[15] = system: KB (human oral squamous carcinoma); conditions: ref 104; cited from earlier work
DPPH antioxidant assay = conditions: calculated from Trolox standard curve
Experimental: as §5, §6, §7

[16] = system: SMMC-7721 (human hepatocarcinoma); set-up: method as in PMID 35897914; conditions: ref 27; read-out: anticancer IC50 (SMMC-7721); cited from earlier work
[17] = system: CCRF-CEM, CEM (human T lymphoblastic leukemia); conditions: ref 26; read-out: anticancer IC50 (CCRF-CEM, CEM); cited from earlier work
HCV (Hepatitis C virus) = system: HCV (Hepatitis C virus); set-up: method as in PMID 26102077; conditions: ref 32; read-out: antiviral EC50 (HCV); cited from earlier work
[18] = system: A-2780 (human ovarian carcinoma); set-up: method as in PMID 31277238; conditions: ref 40; read-out: anticancer IC50 (A-2780); cited from earlier work
[19] = system: NOZ (human gall bladder carcinoma); set-up: method as in PMID 31915810; conditions: ref 39; read-out: anticancer IC50 (NOZ); cited from earlier work
[20] = system: SW-480 (human colon adenocarcinoma); set-up: method as in PMID 28981110; conditions: ref 38; read-out: anticancer IC50 (SW-480); cited from earlier work
[21] = system: HCT-116 (human colorectal carcinoma); conditions: ref 38; read-out: anticancer IC50 (HCT-116); cited from earlier work

| Structure (SMILES) | cytotoxic activity class [2] | IC50 [4] | Selectivity index (SI), SKOV-3 [4] | IC50 [5] | Selectivity index (SI), A-549 [5] | IC50 [7] | Selectivity index (SI), KB [7] | IC50 [8] | Selectivity index (SI), MCF-7 [8] | IC50 [10] | Selectivity index (SI), PC-3 [10] | IC50 [11] | Selectivity index (SI), HeLa [11] | IC50 [14] | Trolox Equivalent, CUPRAC Assay (CUPRAC antioxidant assay) | Trolox Equivalent, DPPH Assay (DPPH antioxidant assay) | IC50 [17] | also measured |
| --- | --- | --- | --- | --- | --- | --- | --- | --- | --- | --- | --- | --- | --- | --- | --- | --- | --- | --- |
| CC(=O)O[C@H]1CC[C@]2(C)[C@H]3CC=C4[C@@H]5CC(C)(C)CC[C@]5(C(=O)O)CC[C@@]4(C)[C@]3(C)CC[C@H]2C1(C)C [1b, 3-O-Acetyloleanolic acid] | very high cytotoxic activity | 0.09 µM | 2.11 | 0.24 µM | 0.79 | 0.36 µM | 0.53 | 1.86 µM | 0.10 | 0.11 µM | 1.73 | 0.24 µM | 0.79 | 0.19 µM | 0.2199 mg/mL and 0.2199 ± 0.00657 mg/mL | 0.0143 ± 0.000592 mg/mL |  | IC50 ([1]; ref 105): 64.7 µM; IC50 ([1]; ref 107): 64.7 µM; IC50 (RAW 264.7): 13.8 µM; IC50 [3]: 16.8 µM; Apoptotic index (AI), PC-3 (PC-3): 6.90 (0.04); IC50 ([6]; ref 105, read-out: IC50 (Hep-G2)): 104 µM; Apoptotic index (AI), SKOV-3 (SKOV-3): 6.79 (0.16); IC50 ([9]; ref 105, read-out: IC50 (HT-29)): 148 µM; IC50 ([12]; ref 104, read-out: IC50 (A-549)): 5.8 µM; IC50 [13]: 7.6 µM; IC50 [15]: 7.6 µM |
| CC1(C)CC[C@]2(CO)CC[C@]3(C)C(=CC[C@@H]4[C@@]5(C)CC[C@H](O)C(C)(C)[C@@H]5CC[C@]43C)[C@@H]2C1 [2a, erythrodiol] |  | 18.3 µM | 1.53 | 63.7 µM | 0.44 | 66 µM | 0.42 | 65.5 µM | 0.43 | 21.1 µM | 1.32 | 54.3 µM |  | 28 µM | 0.09414 mg/mL and 0.09414 ± 0.0095 mg/mL | 0.02092 mg/mL and 0.02092 ± 0.000866 mg/mL | 250 µM | IC50 [16]: 65 µM; times less active than oleanolic acid 1a ([2]; HeLa, KB, MCF-7 and A-459 cell lines): 4.4–7.2 times; IC50 ([6]; ref 24, read-out: anticancer IC50 (Hep-G2)): 27.3 µM; IC50 ([6]; ref 27, read-out: anticancer IC50 (Hep-G2)): 87.7 µM; EC50 ([9]; ref 25, read-out: anticancer EC50 (HT-29)): 48.8 µM; IC50 ([12]; cell line printed as A-459, read-out: anticancer IC50 (A-459)): 63 µM |
| C=C(C)[C@@H]1CC[C@]2(C(=O)O)CC[C@]3(C)[C@H](CC[C@@H]4[C@@]5(C)CC[C@H](O)C(C)(C)[C@@H]5CC[C@]43C)[C@@H]12 [4a, betulinic acid] | high or moderately high activity | 9.52 µM | 2.09 | 26.2 µM | 0.76 | 35.2 µM | 0.56 | 27.9 µM | 0.71 | 10.6 µM | 1.88 | 27.5 µM | 0.72 | 19.9 µM | 0.07632 ± 0.00727 mg/mL | 0.01526 ± 0.000632 mg/mL | 30 µM | EC50 (HCV (Hepatitis C virus)): 11.2 µM; IC50 [18]: 44.5 µM; IC50 [19]: 30 µM; IC50 [20]: 58 µM; IC50 ([9]; ref 38, read-out: anticancer IC50 (HT-29)): 125 µM; IC50 [21]: 178 µM |
